Data as given in US11891403B2, “Tetrazole derivatives as TRPA1 inhibitors” (Boehringer Ingelheim International GmbH, priority 2020, dated 2024).

What was measured:
human TRPA1 ion channel = target: T1, human TRPA1 ion channel (Homo sapiens, UniProt O75762); experiment: Assay A: TRPA1 assay (FLIPRtetra, AITC-induced intracellular calcium); assay type: cell-based; settings: HEK293 cell line over-expressing human TRPA1, AITC agonism (final 10 μM), AUC of calcium signal, read-out: hTRPA1 IC50
T1 construct: host or cells: HEK293
T1 sequence (O75762 whole entry): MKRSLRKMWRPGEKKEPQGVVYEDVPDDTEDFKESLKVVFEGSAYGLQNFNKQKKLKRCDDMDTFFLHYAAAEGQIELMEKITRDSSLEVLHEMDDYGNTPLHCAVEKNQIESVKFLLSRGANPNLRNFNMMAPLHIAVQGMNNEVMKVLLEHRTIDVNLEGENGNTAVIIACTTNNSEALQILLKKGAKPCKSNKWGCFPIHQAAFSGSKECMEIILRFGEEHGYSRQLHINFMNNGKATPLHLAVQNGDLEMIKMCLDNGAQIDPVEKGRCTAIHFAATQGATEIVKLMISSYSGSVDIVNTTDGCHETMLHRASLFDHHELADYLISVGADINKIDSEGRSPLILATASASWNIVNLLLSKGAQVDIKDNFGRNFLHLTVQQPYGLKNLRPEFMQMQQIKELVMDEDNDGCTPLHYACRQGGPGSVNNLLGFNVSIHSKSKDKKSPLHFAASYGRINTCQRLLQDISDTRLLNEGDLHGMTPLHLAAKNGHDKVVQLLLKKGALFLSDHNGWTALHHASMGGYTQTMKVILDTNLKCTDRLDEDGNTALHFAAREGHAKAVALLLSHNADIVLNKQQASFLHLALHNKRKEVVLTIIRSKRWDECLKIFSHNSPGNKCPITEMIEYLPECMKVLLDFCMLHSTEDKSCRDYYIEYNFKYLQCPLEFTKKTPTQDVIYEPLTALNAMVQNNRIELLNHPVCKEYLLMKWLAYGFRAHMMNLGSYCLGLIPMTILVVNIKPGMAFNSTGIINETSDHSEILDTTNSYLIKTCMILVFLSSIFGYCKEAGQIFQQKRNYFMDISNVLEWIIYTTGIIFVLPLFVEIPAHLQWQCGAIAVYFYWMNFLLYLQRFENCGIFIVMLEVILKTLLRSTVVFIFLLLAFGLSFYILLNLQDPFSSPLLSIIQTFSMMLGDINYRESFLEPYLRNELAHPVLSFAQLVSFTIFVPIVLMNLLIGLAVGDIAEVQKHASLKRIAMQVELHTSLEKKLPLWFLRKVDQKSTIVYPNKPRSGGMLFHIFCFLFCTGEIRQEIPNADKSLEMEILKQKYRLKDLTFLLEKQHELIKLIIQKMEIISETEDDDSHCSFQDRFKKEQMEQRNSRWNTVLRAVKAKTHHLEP
Description: A human HEK293 cell line over-expressing the human TRPA1 ion channel (Perkin Elmer, Product No. AX-004-PCL) is used as a test system for compound efficacy and potency. Compound activity is determined by measuring the effect of compounds on intracellular calcium concentration induced by AITC (Allylisothiocyanat) agonism in a FLIPRtetra system (Molecular Devices).
The cells are obtained as frozen cells in cryo-vials and stored until use at −150° C.
Cells are grown in culture medium (MEM/EBSS medium with 10% FCS and 0.4 mg/ML Geneticin). […] For sub-culturing cells are detached from flasks by Versene. At the day before the assay, cells are detached, washed twice with medium (MEM/EBSS medium with 10% FCS) and 20000 cells in 20 μl/well are seeded to Poly D-Lysin biocoated 384-well plates (black, clear bottom, Cat. 356697) from Corning. Plates are incubated for 24 hours at 37° C./5% C02 before use in the assay.
The test compounds are dissolved in 100% DMSO at a concentration of 10 mM and in a first step diluted in DMSO to a concentration of 5 mM, followed by serial dilution steps in 100% DMSO. Dilution factor and number of dilution steps may vary according to needs. Typically 8 different concentrations by 1:5 dilutions are prepared, further intermediate dilutions (1:20) of the substances are carried out with HBSS/HEPES buffer (1×HEPES, Cat. 14065 from Gibco, 20 mM HEPES, Cat. 83264 from SIGMA, 0.1% BSA Cat. 11926 from Invitrogen, pH 7.4
At the assay day cells are washed 3× with assay puffer, 20 μL buffer remaining in the wells after washing. 10 μL Ca6 kit (Cat. R8191 Molecular Devices) loading buffer in HBSS/HEPES is added to the cells and the plates are incubated with lid for 120 minutes at 37°/5% CO2. 10 μL of compound or controls in HBSS/HEPES buffer/5% DMSO from the intermediate dilution plate are carefully added to the wells. […] Finally 10 μL of the agonist AITC 50 μM dissolved in HBSS/HEPES buffer/0.05% DMSO (final concentration 10 μM) is added to the wells followed by an additional read on the FLIPRtetra device for 10 minutes. The area under the signal curve (AUC) after AITC addition is used for IC50/% inhibition calculations
Data Evaluation and Calculation:
Each assay microtiter plate contains wells with vehicle (1% DMSO) controls instead of compound as controls for AITC induced luminescence (100% CTL; high controls) and is wells with vehicle controls without AITC as controls for non-specific changes in luminescence (0% CTL; low controls).
The analysis of the data is performed by the calculation of the area under signal curve of the individual wells. Based on this values the % value for the measurement of each substance concentration is calculated (AUC(sample)−AUC(low))*100/(AUC(high)−AUC(low)) using MegaLab software (in house development). The IC50 values are calculated from the % control values using MegaLab software. Calculation: [y=(ad)/(1+(x/c)^b)+d], a=low value, d=high value; x=conc M; c=IC50 M; b=hill; y=% ctrl

[1] = Assay B: Microsomal clearance; assay type: in vitro ADME, human; settings: pooled liver microsomes 1 mg/ml, test compound 1 μM, 37° C., NADPH; clearance as % of hepatic blood flow
Description: Assay B: Microsomal Clearance:
The metabolic degradation of the test compound is assayed at 37° C. with pooled liver microsomes. The final incubation volume of 100 μl per time point contains TRIS buffer pH 7.6 at RT (0.1 M), magnesium chloride (5 mM), microsomal protein (1 mg/ml) and the test compound at a final concentration of 1 μM.
Following a short preincubation period at 37° C., the reactions are initiated by addition of beta-nicotinamide adenine dinucleotide phosphate, reduced form (NADPH, 1 mM) and terminated by transferring an aliquot into solvent after different time points (0, 5, 15, 30, 60 min). Additionally, the NADPH-independent degradation is monitored in incubations without NADPH, terminated at the last time point. The [%] remaining test compound after NADPH independent incubation is reflected by the parameter c (control) (metabolic stability). The quenched incubations are pelleted by centrifugation (10000 g, 5 min).
An aliquot of the supernatant is assayed by LC-MS/MS for the amount of parent compound. The half-life (t½ INVITRO) is determined by the slope of the semilogarithmic plot of the concentration-time profile.
The intrinsic clearance (CL_[…]) is calculated by considering the amount of protein in the incubation: CL_[…] [μl/min/mg protein]=(Ln 2/(half-life [min]*protein content [mg/ml]))*1000 CL_[…]_INVIVO [ml/min/kg]=(CL_[…] [μL/min/mg protein]×MPPGL [mg protein/g liver]×liver factor [g/kg bodyweight])/1000 Qh [%]=CL [ml/min/kg]/hepatic blood flow [ml/min/kg])
(§1) Hepatocellularity, human: 120×10e6 cells/g liver
(§2) Liver factor, human: 25.7 g/kg bodyweight
(§3) Blood flow, human: 21 ml/(min×kg)

[2] = Assay C: Hepatocyte clearance; assay type: in vitro ADME, human; settings: cryopreserved hepatocyte suspension, test compound 1 μM, up to 6 h; predicted clearance as % of hepatic blood flow
Description: Assay C: Hepatocyte Clearance
The metabolic degradation of the test compound is assayed in a hepatocyte suspension. Hepatocytes (cryopreserved) are incubated in Dulbecco's modified eagle medium (supplemented with 3.5 μg glucagon/500 mL, 2.5 mg insulin/500 mL and 3.75 mg/500 mL hydrocortison) containing 5% or 50% species serum.
The cells are incubated for six hours (incubator, orbital shaker) and samples (25 μl) are taken at 0, 0.5, 1, 2, 4 and 6 hours. Samples are transferred into acetonitrile and pelleted by centrifugation (5 min). The supernatant is transferred to a new 96-deepwell plate, evaporated under nitrogen and resuspended.
Decline of parent compound is analyzed by HPLC-MS/MS
CLint is calculated as follows CL_[…]=Dose/AUC=(CO/CD)/(AUD+clast/k)×1000/60. CO: initial concentration in the incubation [P M], CD: cell density of vital cells [10e6 cells/mL], AUD: area under the data [μM×h], clast: concentration of last data point [μM], k: slope of the regression line for parent decline [h−1].
The calculated in vitro hepatic intrinsic clearance can be scaled up to the intrinsic in vivo hepatic Clearance and used to predict hepatic in vivo blood clearance (CL) by the use of a liver model (well stirred model). CL_[…]_INVIVO [ml/min/kg]=(CL_[…] [μL/min/10e6 cells]×hepatocellularity [10e6 cells/g liver]×liver factor [g/kg bodyweight])/1000 CL [ml/min/kg]=CL_[…]_INVIVO [ml/min/kg]×hepatic blood flow [ml/min/kg]/(CL_[…]_INVIVO [ml/min/kg]+hepatic blood flow [ml/min/kg]) Qh [%]=CL [ml/min/kg]/hepatic blood flow [ml/min/kg])
as §1, §2, §3

Compound | IC50 (human TRPA1 ion channel) [nM] | human LM [% Qh] [1] [% Qh] | human Hepatocytes [% Qh] [2] [% Qh]
CN1C(=O)COc2ncn(Cc3nnn(C[C@H](O)c4cc5cc(Cl)c(F)cc5o4)n3)c(=O)c21 [Example 11] | 81 | 34 | 29
CN1C(=O)COc2ncn(Cc3nnn(C[C@H](O)c4cc(Cl)c(Cl)s4)n3)c(=O)c21 [Example 5] | 39 | <23 | 29
Cc1ccc([C@@H](O)Cn2nnc(Cn3cnc4c(c3=O)N(C)C(=O)CO4)n2)cc1 [Example 9] | 73 | <23 | 5
C[C@@H]1Oc2ncn(Cc3nnn(C[C@H](O)c4ccc(Cl)cc4)n3)c(=O)c2N(C)C1=O [Example 24] | 100 | <23 | 16
CN1C(=O)COc2ncn(Cc3nnn(C[C@H](O)c4cc5cc(Cl)ccc5o4)n3)c(=O)c21 [Example 4] | 32 | <23 | 31
CN1C(=O)COc2ncn(Cc3nnn(C[C@H](O)c4cc5ccccc5s4)n3)c(=O)c21 [Example 3] | 23 | <23 | 18
CN1C(=O)COc2ncn(Cc3nnn(C[C@H](O)c4ccc5c(c4)OCO5)n3)c(=O)c21 [Example 14] | 191 | <23 | 5
COc1ccc([C@@H](O)Cn2nnc(Cn3cnc4c(c3=O)N(C)C(=O)CO4)n2)cc1 [Example 17] | 248 | <23 | 13
CN1C(=O)CCc2ncn(Cc3nnn(C[C@H](O)c4ccc(Cl)cc4)n3)c(=O)c21 [Example 20] | 140 | <23 | <4
CN1C(=O)COc2ncn(Cc3nnn(C[C@H](O)c4cc5cc(F)ccc5o4)n3)c(=O)c21 [Example 6] | 45 | <23 | 13
CN1C(=O)C(F)(F)Oc2ncn(Cc3nnn(C[C@H](O)c4ccc(Cl)cc4)n3)c(=O)c21 [Example 22] | 74 | 35 | 12
CN1C(=O)COc2ncn(Cc3nnn(C[C@H](O)c4cc5ccccc5o4)n3)c(=O)c21 [Example 12] | 115 | <23 | 8
CN1C(=O)COc2ncn(Cc3nnn(C[C@H](O)c4cc5cc(F)c(F)cc5o4)n3)c(=O)c21 [Example 7] | 60 | <23 | 21
CN1C(=O)COc2ncn(Cc3nnn(C[C@H](O)c4ccc(C#N)s4)n3)c(=O)c21 [Example 16] | 237 | <23 | <4
CN1C(=O)COc2ncn(Cc3nnn(C[C@H](O)c4ccc5cc(C#N)oc5c4)n3)c(=O)c21 [Example 19] | 214 | <23 | 19
CN1C(=O)COc2ncn(Cc3nnn(C[C@H](O)c4cc5cccc(F)c5o4)n3)c(=O)c21 [Example 18] | 153 | <23 | 8
CN1C(=O)CSc2ncn(Cc3nnn(C[C@H](O)c4ccc(Cl)cc4)n3)c(=O)c21 [Example 21] | 155 | <23 | 6
CN1C(=O)COc2ncn(Cc3nnn(C[C@H](O)c4cc5ccc(F)cc5o4)n3)c(=O)c21 [Example 13] | 145 | <23 | 10
C[C@H]1Oc2ncn(Cc3nnn(C[C@H](O)c4ccc(Cl)cc4)n3)c(=O)c2N(C)C1=O [Example 23] | 52 | 25 | 36
CN1C(=O)COc2ncn(Cc3nnn(C[C@H](O)c4ccc(Cl)cc4)n3)c(=O)c21 [Example 1, 3-({2-[(2R)-2-(4-chlorophenyl)-2-hydroxyethyl]-2H-1,2,3,4-tetrazol-5-yl}methyl)-5-methyl-3H,4H,5H,6H,7H-pyrimido[4,5-b][1,4]oxazine-4,6-dione] | 53 | <23 | 7
CN1C(=O)COc2ncn(Cc3nnn(C[C@H](O)c4ccc(Cl)s4)n3)c(=O)c21 [Example 10] | 80 | <23 | <4
CN1C(=O)COc2ncn(Cc3nnn(C[C@H](O)c4cc5ccc(F)cc5s4)n3)c(=O)c21 [Example 2] | 15 | <23 | 16
CN1C(=O)COc2ncn(Cc3nnn(C[C@H](O)c4cc5cc(F)c(Cl)cc5o4)n3)c(=O)c21 [Example 15] | 227 | 26 | 29
CN1C(=O)COc2ncn(Cc3nnn(C[C@H](O)c4ccc(Br)cc4)n3)c(=O)c21 [Example 8] | 62 | <23 | 11
